Measurements: US10413594B2, “Conjugates of somatostatin analogues” (ProLynx LLC, priority 2013, dated 2019)
Where a name gives a salt, the structure may show the parent alone. Starred links: 1 amine or outer side, 2 acyl side, 3 side chain; linkers in the order of their positions; H or OH if unused. Non-standard residues stand in square brackets, D forms with d. Residues, ends and D or L forms follow the SMILES beside them. Groups on a side chain read outwards from the residue. *: point of attachment. Ethylenediamine = C(CN[*:2])N[*:1]; Hyp = O=C(O)[C@@H]1C[C@@H](O)CN1; Phg = N[C@H](C(=O)O)c1ccccc1; CO = O=C([*:1])[*:2]; Bn = c1ccc(C*)cc1

Key:
[1] = In vivo pharmacokinetics after IV injection in cannulated rats; settings: Sprague Dawley, rat, plasma, 56 mg/kg conjugate
Procedure: PK assays on the conjugates of Example 5 were performed on cannulated Sprague Dawley rats. […] Blood samples were collected at 0, 1, 2, 4, 8, 12, 24, 48, 72, and 120 hours. At each timepoint a 300 μL blood sample was added to 30 μL of a 1M citrate/0.1% Pluronic® F68 solution, pH 4.5 to lower the pH and remove coagulation factors to give plasma.
A portion of the plasma samples were precipitated by addition of 3 parts acetonitrile and centrifuged at 16000×g for 10 minutes. The samples were analyzed by HPLC for PEG-peptide conjugate and PEG-remnant concentrations. Concentrations were calculated by comparison of peak areas to a standard curve.
A portion of the releasable plasma samples was analyzed by LC/MSMS for free octreotide (MedPace).
The volume of distribution (100 mL/kg) is also in line with previous PEG conjugate, typically measured at the approximate blood volume of the rat (70 mL/kg).

[2] = subcutaneous administration; cited from earlier work
somatostatin receptor 5 = somatostatin receptor 5 (Homo sapiens, UniProt P35346); settings: relative to other somatostatin analogs; cited from earlier work
[3] = subcutaneous administration; cited from earlier work; remark: listed apart in the source

somatostatin receptor 5, sequence (P35346 whole entry): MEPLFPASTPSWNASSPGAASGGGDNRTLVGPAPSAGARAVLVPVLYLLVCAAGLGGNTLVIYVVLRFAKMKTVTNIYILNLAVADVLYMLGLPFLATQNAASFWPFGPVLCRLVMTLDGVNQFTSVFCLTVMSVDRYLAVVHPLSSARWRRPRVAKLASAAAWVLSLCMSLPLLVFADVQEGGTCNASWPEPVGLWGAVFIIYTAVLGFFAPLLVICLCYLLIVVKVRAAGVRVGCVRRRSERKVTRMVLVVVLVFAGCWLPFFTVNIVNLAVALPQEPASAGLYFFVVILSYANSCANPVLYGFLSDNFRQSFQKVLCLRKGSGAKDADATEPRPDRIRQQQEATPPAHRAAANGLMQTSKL

Structure (SMILES) | half-life [1] | average half-life of elimination from plasma [2] | increased affinity to somatostatin receptor 5 than other somatostatin analogs (somatostatin receptor 5) | effective half-life [3] | volume of distribution [3]
C[C@@H](O)[C@@H]1NC(=O)[C@H](CCCCN)NC(=O)[C@@H](Cc2c[nH]c3ccccc23)NC(=O)[C@H](Cc2ccccc2)NC(=O)[C@@H](NC(=O)[C@H](N)Cc2ccccc2)CSSCC(C(=O)N[C@H](CO)[C@@H](C)O)NC1=O (relative stereo) [Octreotide, D-phenylalanyl-L-cysteinyl-L-phenylalanyl-D-tryptophyl-L-lysyl-L-threonyl-N-[2-hydroxy-1-(hydroxymethyl)propyl]-L-Cysteinamide, cyclic (2→7)-disulfide; [R—(R*,R*)]] | 50 h | 1.7 h | – | – | –
NCCCC[C@@H]1NC(=O)[C@@H](Cc2c[nH]c3ccccc23)NC(=O)[C@H](c2ccccc2)NC(=O)[C@@H]2C[C@@H](OC(=O)NCCN)CN2C(=O)[C@H](Cc2ccccc2)NC(=O)[C@H](Cc2ccc(OCc3ccccc3)cc2)NC1=O [Pasireotide, (2-aminoethyl) carbamic acid (2R,5,8S,11S,14R,17S,19aS)-11-(4-aminobutyl)-5-benzyl-8-(4-benzyloxybenzyl)-14-(1H-indol-3ylmethyl)-4,7,10,13,16,19-hexaoxo-17-phenyloctadecahydro-3a,6,9,12,15,18-hexaazacyclopentacyclooctadecen-2-yl ester, di[(S)-2-aminosuccinic acid] salt] (cyclo([Hyp]([CO-Ethylenediamine])[Phg][dW]KY(Bn)F)) | – | – | 40 fold | approximately 12 h | > 100 L
